Assay results reported in PMC2376196, “Novel thalidomide analogues display anti-angiogenic activity independently of immunomodulatory effects” (British Journal of Cancer, 2002).
pIC50: −log10 of the molar value. ≈ marks a conversion by molar mass, not a printed value. Entries after “also recorded” stand apart in the source; their conditions may differ. Read-outs that look alike come from different tables or passages of the source.

Assays:
[1] = system: EC; set-up: method as in Takano et al, 1994; conditions: ref Takano et al, 1994; cited from earlier work
[2] = system: HUVECs (tubule formation); test: Human angiogenesis kit (tubule development); format: cell-based; set-up: key to Anti-angiogenesis Human model: 0=no effect; 1=non significant inhibition; 2=significant inhibition at 10 μg ml^-1; 3=significant inhibition at 1 μg ml^-1; conditions: for inhibition of tubule development: 11 days; for Anti-angiogenesis Human model: ranked 0-3
Method: (§1) For the human angiogenesis assay thalidomide and various analogues were dissolved in DMSO (Sigma, Kent, UK) to obtain a stock solution of 1 mg ml^−1. Further dilutions were made in warm culture medium immediately before use and 1 and 10 μg ml^−1 of thalidomide or analogues were administered every 48 h. Final DMSO concentration was 0.05%. For the rat aorta assay, thalidomide analogues (Celgene, Warren, NJ, USA) were prepared in Tween 80 (Sigma, Kent, UK). Dilutions were made in culture medium immediately before use and 1 or 10 μg ml^−1 of the analogues were administered every 48 h. The final Tween 80 concentration was 0.025%. For in vivo treatment experiments, mice were treated daily with 10 or 50 mg kg^−1 IMiD-1 with 0.5% DMSO as vehicle (see Tumour challenge model).
A commercially available human angiogenesis kit, used for the assessment of angiogenesis in vitro ([Bishop et al, 2000]; [Donovan et al, 2001]; [Terai et al, 2001]; [Drinkwater et al, 2002]; [Osugi et al, 2002]) was provided by TCS Cellworks. The assay is supplied as growing cultures of HUVECs at the earliest stages of tubule formation in a 24 well plate format. The assay was carried out according to manufactures instructions with minor modifications. In brief, 0.5 ml^−1 of fresh medium or medium plus drug preparations were added to the appropriate wells. A known angiogenic stimulator (VEGF at 5 ng ml^−1) and inhibitor (suramin at 10 μg ml^−1) were included as positive and negative controls respectively in addition to medium and DMSO controls and plates were incubated at 37°C. Drug administration was carried out every 48 h. On day 11, wells were fixed using ice cold 70% EtOH prior to incubation (RT) for 30 min. Blocking buffer was then added for 10 min. Endothelial cells were visualised by first staining with a primary sheep anti-human for von Willebrand factor antibody followed by a secondary donkey anti-sheep IgG horseradish peroxidase conjugate prior to colour development using a DAB metal substrate. The plate was washed with ddH2O (×3) and allowed to air dry overnight. Cultures were scored manually using a 25-point Chalkley eyepiece graticule (Graticules Ltd., Tonbridge, Kent, UK), previously described as a satisfactory method of assessing tumour vascularity ([Fox et al, 1995]). The extent of angiogenesis was assessed by counting the number of points on the chalkley graticule that landed on a tubule. The count was repeated 12 times for each well. The term ‘graticule unit’ was assigned to this measurement of tubule density.

[3] = system: HUVEC; test: HUVEC proliferation (bFGF- and VEGF-induced, 3H-thymidine); format: cell-based, human; conditions: for bFGF and VEGF-induced proliferation of HUVECs: 5-50 μg ml^-1, 96 h; for HUVEC inhibition ~IC50 VEGF / HUVEC inhibition ~IC50 bFGF / IC50: 96 h, approximate figures; for IC50: Homo sapiens, HUVEC
Method: (§2) Human umbilical vein endothelial cells (HUVEC) were purchased from TCS Cellworks Ltd. (Park Leys, Botolph Claydon, Bucks, UK) and cultured in large vessel EC basal medium and cell growth supplement (TCS Cellworks Ltd.). The cells were passaged between 3–5 times prior to use. The human endothelial-like EA.hy926 cell line, derived from the fusion of HUVEC with the A549 carcinoma cell line ([Edgell et al, 1983]), was kindly provided by Cora-Jean Edgell (NC, USA). The cells were cultured in DMEM with high glucose, 10% FCS and HAT. Both cell lines were harvested from subconfluent cultures and diluted to 4×10^4 cells ml^−1. Cells were seeded in 60 wells of a 96-well plate in a volume of 100 μl^−1. One plate was used per test article. Plates were incubated for 1 h at 37°C and 5% CO2. Growth factors were added at a volume of 50 μl^−1 with final concentrations of 10 ng ml^−1. Thalidomide and its analogues were added at a volume of 50 μl^−1 in final concentrations of 5, 10, 25, 50 μg ml^−1. DMSO as used as a vehicle at a final concentration of 0.05%. Plates were incubated at 37°C with 5% CO2 for 96 h. During the last 18 h of culture 1 μCi^−1 of ^3H-thymidine was added per well. Plates were then stored at −20°C until analysis using a Microbeta counter (Wallac, UK).

[4] = system: rat aortic explants; test: Rat aorta assay (microvessel outgrowths); format: cell-based; set-up: key to Anti-angiogenesis Rat aorta: 0=no effect; 1=non significant inhibition; 2=significant inhibition at 10 μg ml^-1; 3=significant inhibition at 1 μg ml^-1; conditions: for Anti-angiogenesis Rat aorta: ranked 0-3
Method: as §1, with “Dilutions were made in culture medium immediately before use and 1 or 10 μg ml^−1 of the analogues were administered every 48 h.” left out
Preparation of agarose culture wells and aortic explants were prepared as described originally [Nicosia and Ottinetti, 1990], and subsequently modified by [Stevenson et al, 1998]. In brief, aortic explants were stored in DMEM/HAM F12. Agarose rings were obtained by punching two concentric circles in the sterile agarose gel (1.5%, w v^−1) with specifically designed aluminium punches. Collagen type I from rat tail (Sigma) was dissolved overnight in glacial acetic acid and diluted to 4.3 mg ml^−1 with 10% (v v^−1) DMEM/HAM F12. The final collagen solution was obtained by mixing seven volumes of 4.3 mg ml^−1 collagen with two volumes NaHCO3 (11.7 mg ml^−1 in DMEM/HAM F12) and one volume of 10×MEM. Finally, the pH was adjusted to 7.4 with 0.1 M NaOH using phenol red as a visual indicator. Prior to embedding of explants in collagen gel, the bottom of each agarose well was coated with 200 μl collagen solution and allowed to set at 37°C. The wells were then filled (further addition of 400 μl) and explants were promptly orientated into the centre of the collagen gel. The plates were incubated overnight with serum-free medium before group allocation and drug treatment commenced. Drugs were prepared as described and diluted in DMEM/HAM F12 medium to be administered at each media change (48 h). Microvessel outgrowths in all cultures were quantified at each media change.

[5] = system: EA.hy926 cells; test: Wound assay for EA.hy926 cell migration; format: cell-based, human; conditions: 16 h
Method: We tested IMiD-1 in the wound healing assay as described by [Igura et al, 2001]. Briefly, confluent monolayers of EA.hy.926 cells in 35-mm dishes were wounded with a rubber policeman and washed with PBS. Then the dishes were incubated in complete DMEM containing IMiD-1 or suramin for 16 h at 37°C in a 5% CO2 incubator. DMSO (0.05%) was used as control. The cell monolayers were fixed with absolute methanol and stained with Giemsa. The number of cells that had migrated from the edge of the wound in each 125×500 μm area of eight randomly chosen fields was counted. The results are presented as the average number of cells per field.

[6] = system: TNF-α; test: TNF-α inhibitory activity; format: cell-based
[7] = system: EA.hy926 cell line; test: EA.hy926 proliferation (bFGF- and VEGF-induced, 3H-thymidine); format: cell-based, human; conditions: 5-50 μg ml^-1, 96 h; data not shown
Method: as §2

[8] = system: human EC; set-up: method as in Moreira et al, 1999; conditions: compared with thalidomide; ref Moreira et al, 1999; cited from earlier work
[9] = system: PDE type 4 purified from U937 cells; test: Phosphodiesterase (PDE) type 4 assay; format: biochemical; conditions: PDE type 4 from U937 cells; three independent experiments; read-out: PDE4 activity IC50
Method: PDE type 4 purification from U937 cells was carried out using the method of [Hill and Mitchell (1994)]. PDE activity was assayed, using a method described by [di Santo and Heaslip (1993)], in the presence of varying concentrations of thalidomide analogues. Each data point was carried out in duplicate with activity expressed as percentage of control. IC50 was determined from dose response curves derived from three independent experiments.

[10] = system: CMT93 colorectal tumour; format: in vivo, MF1 nude mice
Method: as §1
MF1 nude mice (nu nu^−1) were purchased from Harlan UK. Mice were age and sex-matched for individual experiments. All animal experiments have been carried out with ethical committee approval. The ethical guidelines that were followed meet the standards set by the UKCCCR guidelines ([Workman et al, 1998]). CMT93 is an epithelial-like murine rectum polypoid carcinoma cell line with sarcomatous features derived from a C57/BL mouse ([Franks and Hemmings, 1978]). Mice were challenged subcutaneously with 200 μl of the murine colorectal cell line CMT93 (2×10^6 per mouse). Once the tumours reached a size of 20 mm^3, the potent anti-angiogenic analogue IMiD-1 was administered intraperitoneally daily at a concentration of 10 or 50 mg kg^−1. Tumours were measured every 3–4 days, and volumes (in mm^3) were calculated by the use of the formula (width [mm^2]×length [mm]×0.52). The animals were observed daily, and those bearing large tumours were monitored carefully for any signs of discomfort. […] Histological samples were obtained using formalin-fixed, paraffin-embedded sections stained for haematoxylin and eosin and viewed under a microscope at a magnification of ×400.

[11] = system: CMT93 cells; test: CMT93 cells in vitro (direct effect, VEGF secretion); format: cell-based, murine; conditions: data not shown

In the case of `Cc1ccc(C(=O)Nc2ccc(S(=O)(=O)O)c3cc(S(=O)(=O)O)cc(S(=O)(=O)O)c23)cc1NC(=O)c1cccc(NC(=O)Nc2cccc(C(=O)Nc3cc(C(=O)Nc4ccc(S(=O)(=O)O)c5cc(S(=O)(=O)O)cc(S(=O)(=O)O)c45)ccc3C)c2)c1` [suramin, reference compound], the “concentration required to inhibit EC proliferation” value [1] is given as 250 µg/mL, the inhibition at 10 µg/mL ([2]; Homo sapiens, HUVEC, suramin at 10 μg ml^-1) is given as roughly 50% and the “bFGF and VEGF-induced proliferation of HUVECs” value [3] is given as “did not inhibit”. For the same compound, the “inhibition of microvessel outgrowths” value ([4]; 10 μg ml^-1 every 48 h) was “significantly inhibit”, the IC50 ([4]; Rattus norvegicus, previously determined, data not shown) was 10 µg/mL (≈ 7.71 µM) and the “migration of EC in the wound healing assay” value [5] was “significantly inhibit”.

For VEGF, the “effect on angiogenesis (tubule development)” value ([2]; VEGF at 5 ng ml^-1, positive control) was “significantly increased”.

In the case of `COc1ccc(C(CC(N)=O)N2C(=O)c3ccccc3C2=O)cc1OC` (centres unmarked) [SelCID-3], the pIC50 [6] was 4.90, the “bFGF and VEGF-induced proliferation of HUVECs” value [3] was “inhibited” and the “HUVEC inhibition ~IC50 VEGF” value ([3]; VEGF-induced proliferation) was roughly 45 µg/mL. The “HUVEC inhibition ~IC50 bFGF” value ([3]; bFGF-induced proliferation) was roughly 25 µg/mL, the “inhibition of microvessel outgrowths” value ([4]; 1 μg ml^-1 every 48 h) was “potent inhibition” and the “inhibition of microvessel outgrowths” value ([4]; 10 μg ml^-1 every 48 h) was “potent inhibition”. For the same compound, the “Anti-angiogenesis Rat aorta” value [4] was 3, the “bFGF and VEGF-induced proliferation of EA.hy926” value [7] was “inhibited” and the “inhibition of human EC proliferation in vitro” value [8] was “greater extent than thalidomide”. It also gave a pIC50 [9] of 5.03.

In the case of `Nc1cccc2c1CN(C1CCC(=O)NC1=O)C2=O` (centres unmarked) [IMiD-1], the pIC50 [6] was 7.00, the “inhibition of tubule development” value ([2]; 1 μg ml^-1 every 48 h) was “significant reduction; also recorded: significantly inhibit” and the “inhibition of tubule development” value ([2]; 10 μg ml^-1 every 48 h) was “more potent than suramin”. For the same compound, the “Anti-angiogenesis Human model” value [2] was 3, the “bFGF and VEGF-induced proliferation of HUVECs” value [3] was “did not significantly inhibit; also recorded: did not affect” and the “HUVEC inhibition ~IC50 VEGF” value ([3]; VEGF-induced proliferation) was greater than 50 µg/mL. The “HUVEC inhibition ~IC50 bFGF” value ([3]; bFGF-induced proliferation) was greater than 50 µg/mL, the “inhibition of microvessel outgrowths” value ([4]; 1 μg ml^-1 every 48 h) was “significantly inhibited” and the “inhibition of microvessel outgrowths” value ([4]; 10 μg ml^-1 every 48 h, up to day 10) was 100%. For the same compound, the “Anti-angiogenesis Rat aorta” value [4] was 3, the “bFGF and VEGF-induced proliferation of EA.hy926” value [7] was “did not affect” and the pIC50 [9] was less than 4.00. The “histological examination of tumours” value ([10]; 10 or 50 mg kg^-1 i.p. daily) was “vast regions of necrotic tissue”, the tumour growth rates ([10]; 10 or 50 mg kg^-1 i.p. daily, nude mice, CMT93) was “significantly reduce” and the “health and weight of mice” value ([10]; mouse, in vivo, ip) was “healthy and maintained weight as normal”. The “direct drug effect on CMT93 cells in vitro” value [11] was “no direct drug effect”, the “secretion of VEGF by CMT93 cells in vitro” value [11] was “inhibit” and the “migration of EC in the wound healing assay” value [5] was “significantly inhibit”.

For `O=C1CCC(N2C(=O)c3ccccc3C2=O)C(=O)N1` (centres unmarked) [Thalidomide], the pIC50 [6] was 3.72, the “inhibition of tubule development” value ([2]; 10 μg ml^-1 every 48 h) was “non-significant inhibition” and the “Anti-angiogenesis Human model” value [2] was 1. The “bFGF and VEGF-induced proliferation of HUVECs” value [3] was “did not significantly inhibit”, the IC50 ([3]; VEGF-induced proliferation, read-out: HUVEC inhibition ~IC50 VEGF) was greater than 50 µg/mL and the IC50 ([3]; bFGF-induced proliferation, read-out: HUVEC inhibition ~IC50 bFGF) was greater than 50 µg/mL. For the same compound, the “inhibition of microvessel development” value ([4]; at up to 50 μg ml^-1, data not shown) was “did not significantly inhibit”, the “Anti-angiogenesis Rat aorta” value [4] was 0 and the pIC50 [9] was less than 4.00.
